Laboratory results from patent US11542249B2, “BTK inhibitor compounds” (Eli Lilly and Company, priority 2017, dated 2023).

What was measured:
human BTK = human BTK (Homo sapiens (Human), UniProt Q06187); experiment: BTK LANTHASCREEN Eu Kinase Binding Assay; details: IC50 value ± standard deviation; full-length His-labeled BTK, kinase tracer 236; read-out: hBTK Rel IC50
Description: (§1) BTK and EGFR in Vitro Assays:
(§2) The BTK and EGFR biochemical assays utilize LANTHASCREEN® Eu Kinase Binding Assays from Thermo Fisher Scientific, measuring the binding of the kinase with a […] tracer. The assay buffer consists of 50 mM HEPES pH 7.5, 0.01% BRU™-35, 10 mM MgCl2, 1 mM EGTA, and 1 mM DTT. The test compounds are diluted and added to the assay plate with a Labcyte ECHO® 555 liquid handler. The compounds are tested in 10 point dose response curves (100 μM-0.005 μM) with a maximum DMSO concentration of 1%. The assays are performed in 20 μL in low-volume 384-well white proxiplates. For the BTK assay, the concentration of full-length His-labeled BTK in the assay is 5 nM, the Eu-anti-His antibody is 2 nM, and the kinase tracer 236 is 60 nM. For the EGFR assay, the concentration of truncated (amino acids 668-1210) GST-labeled EGFR is 5 nM, the Eu-anti-GST antibody is 2 nM, and the kinase tracer 199 is 10 nM. The components of the assay (compound, enzyme/antibody, tracer) are assembled and incubated for 30 min prior to being read on a Perkin-Elmer EnVision with excitation at 340 nm, tracer emission at 665 nm, and antibody emission at 615 nm. The signal ratio is converted to percent inhibition using the following equation: % Inhibition=100−[(Test Compound−Median Minimum)/(Median Maximum−Median Minimum)×100].
(§3) The following Table 1 and Table 2 describes the relative IC50 data vs. human BTK, human EGFR, and human whole blood CD69.

human EGFR = human EGFR (Homo sapiens (Human), UniProt P00533); experiment: EGFR LANTHASCREEN Eu Kinase Binding Assay; details: IC50 value ± standard deviation; truncated GST-labeled EGFR, kinase tracer 199; read-out: hEGFR Rel IC50
Sequence of human EGFR (P00533 668-1210): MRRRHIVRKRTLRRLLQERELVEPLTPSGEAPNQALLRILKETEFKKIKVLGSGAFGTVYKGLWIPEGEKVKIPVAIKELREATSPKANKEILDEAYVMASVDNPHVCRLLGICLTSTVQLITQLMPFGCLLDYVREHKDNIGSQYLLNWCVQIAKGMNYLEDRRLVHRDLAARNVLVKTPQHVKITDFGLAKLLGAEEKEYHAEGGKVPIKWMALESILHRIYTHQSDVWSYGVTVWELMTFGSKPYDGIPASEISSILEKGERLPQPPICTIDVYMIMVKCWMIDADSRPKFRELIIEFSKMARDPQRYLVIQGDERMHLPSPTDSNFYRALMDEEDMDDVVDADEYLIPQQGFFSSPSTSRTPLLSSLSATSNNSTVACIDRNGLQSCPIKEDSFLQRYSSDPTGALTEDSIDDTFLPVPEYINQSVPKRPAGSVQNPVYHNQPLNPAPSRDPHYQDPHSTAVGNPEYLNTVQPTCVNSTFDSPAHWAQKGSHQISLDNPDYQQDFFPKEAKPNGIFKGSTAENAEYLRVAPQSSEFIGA
Description: as §1, §2

[1] = system: activated B cells in human whole blood (CD69); experiment: Human Whole Blood CD69 in vitro assay (B cell activation, flow cytometry); type: cell-based; details: IC50 value ± standard deviation, anti-human-IgD-Dextran stimulation, read-out: HWB CD69 Rel IC50
Description: Human Whole Blood CD69 in Vitro Assay:
The HWB CD69 assay measures activated B cells in human whole blood using a flow cytometer. Compounds are diluted and added to assay plates with a Labcyte ECHO® 555 liquid handler. Compounds are tested in 10 point dose response curves (20 μM-0.001 μM) in 96-well v-bottom plates with a maximum DMSO concentration of 0.2%. Fresh blood from individual healthy volunteer is mixed with HEPES (0.5 ml HEPES added per 10 ml blood) and 100 μl/well is added to compound plates. The plates are sealed and incubated in a 37° C. incubator for 3 h. Anti-human-IgD-Dextran is added to each well to give a final concentration of 100 ng/ml, mixed, and put back into the incubator. After 1 h, the cells are washed with cold FACS buffer and transferred to a deep well plate. The cells are incubated with anti-human CD69-PE (BIOLEGEND®, clone FN50) and anti-human CD19-APC (BIOLEGEND®, clone HIB19) antibodies on ice for 20 min. The cells are washed and incubated in eBioscience™ 1-step Fix/Lyse solution (10×) at RT to lyse the red blood cells and fix the other cells. The white cells are pelleted and washed in FACS buffer and then brought up in read buffer. The suspended cells are transferred to 96-well round bottom plates and read on an IntelliCyt iQue® Screener Plus flow cytometer. From the SSC (Side Scatter Channel) vs FSC (Forward Scatter Channel) graph, the lymphocytes are identified. Lymphocytes are identified with gated on positive CD19 marker for quantify CD69 (a marker of activated B lymphocytes) MFI (mean fluorescent intensity/cell). The signal ratio is converted to percent inhibition using the following equation: % Inhibition=100−[(Test Compound−Median Min)/(Median Max−Median Min)×100].
as §3

Rat Oral Bioavailability = type: in vivo, Sprague-Dawley rats; details: Sprague-Dawley, plasma, PO 3 mg/kg vs IV 1 mg/kg, read-out: Rat Oral Bioavailability (% F)
Description: The test compound is administered to Sprague-Dawley rats intravenously (IV) at 1 mg/kg (using vehicles of either: 20% CAPTISOL® in 25 mM sodium phosphate buffer, pH2 quantum satis; or 25% DMA, 15% EtOH, 10% propylene glycol, 25% 2-pyrrolidone, and 25% purified water) and orally (PO) at 3 mg/kg (using a vehicle of 1% hydroxyethyl cellulose, 0.25% polysorbate 80, 0.05% Antifoam 1510-US, and purified water quantum satis). Serial blood samples are collected at 0.08, 0.25, 0.5, 1, 2, 4, 8, and 12 h post dose for IV bolus and at 0.25, 0.5, 1, 2, 4, 8, and 12 h post dose after oral administration. After treatment with an EDTA […], plasma is obtained by centrifugation and stored at −70° C. until analysis by LC-MS/MS. Test article concentration is determined in plasma and uploaded into the Watson LIMS™ system where noncompartmental analysis is used to calculate Area Under the Curve (AUC) for both IV and PO arms. Bioavailability (% F) is calculated via the following equation, %F=(AUCPO×DoseIV)/(AUCIV×DosePO)×100. Table 3 indicates the rat oral bioavailability of select BTK inhibitors.

[2] = system: type II collagen-induced arthritis (CIA) rat model; experiment: Rat In Vivo Collagen-Induced Arthritis Assay; parameters: species or system Female Lewis rats; details: for % inhibition paw thickness AUC vs Vehicle control / % paw thickness AUC (mm) ± SE: CIA rats, 9 days; for arthritis severity in CIA rats: compared to vehicle treated CIA rats
Description: A type II collagen-induced arthritis (CIA) rat model may be used to evaluate the therapeutic effects of compounds. Female Lewis rats (Charles River Charles River Laboratories, Inc.) with a mean body weight of 155-175 g are used for the study. Animals are fed with standard rodent chow and provided water ad libitum. Immunization emulsion is prepared with 2 mg/ml bovine collagen-II mixed with an equal volume of incomplete Freund's adjuvant (IFA). Rats are immunized intradermally with 0.4 ml collagen emulsion in two sites each on the lower lumbar region, above the base of the tail on day 1, and again on day 8. Animals are randomized based on the paw thickness and body weight on day 11 into study groups, with 8 rats in each group. Compounds are prepared in 1% HEC/0.25% P80/0.05% anti-foam in purified water and dosed daily via oral gavage for 9 days. Paw thickness is quantitated daily using a caliper measurement in the right ankle site.
The inhibition by the compounds of the invention is evaluated using Dunnett's post test for multiple comparisons for the CIA rat groups treated with the indicated Example compound, at the indicated dose, as compared to CIA rat groups treated with vehicle, and differences of P<0.05 are considered to be significant. […] Mean sum paw thickness is decreased compared to vehicle treated CIA rats. Mean percent paw thickness inhibition during the treatment period illustrates dose-related improvement.
Table 4 indicates the in vivo activity for exemplified BTK inhibitors in the collagen-induced arthritis model (SE=standard error).

normal rats = experiment: In vivo administration to normal rats for four days (tolerability/toxicity)
Excerpt: Compounds of the invention, for instance Example 1, show an advantageous combination of pharmacological properties, such as potency, high oral in vivo availabilty, in vivo efficacy, and a favorable toxicity profile in preclinical testing.

Sequence of human BTK (Q06187 whole entry): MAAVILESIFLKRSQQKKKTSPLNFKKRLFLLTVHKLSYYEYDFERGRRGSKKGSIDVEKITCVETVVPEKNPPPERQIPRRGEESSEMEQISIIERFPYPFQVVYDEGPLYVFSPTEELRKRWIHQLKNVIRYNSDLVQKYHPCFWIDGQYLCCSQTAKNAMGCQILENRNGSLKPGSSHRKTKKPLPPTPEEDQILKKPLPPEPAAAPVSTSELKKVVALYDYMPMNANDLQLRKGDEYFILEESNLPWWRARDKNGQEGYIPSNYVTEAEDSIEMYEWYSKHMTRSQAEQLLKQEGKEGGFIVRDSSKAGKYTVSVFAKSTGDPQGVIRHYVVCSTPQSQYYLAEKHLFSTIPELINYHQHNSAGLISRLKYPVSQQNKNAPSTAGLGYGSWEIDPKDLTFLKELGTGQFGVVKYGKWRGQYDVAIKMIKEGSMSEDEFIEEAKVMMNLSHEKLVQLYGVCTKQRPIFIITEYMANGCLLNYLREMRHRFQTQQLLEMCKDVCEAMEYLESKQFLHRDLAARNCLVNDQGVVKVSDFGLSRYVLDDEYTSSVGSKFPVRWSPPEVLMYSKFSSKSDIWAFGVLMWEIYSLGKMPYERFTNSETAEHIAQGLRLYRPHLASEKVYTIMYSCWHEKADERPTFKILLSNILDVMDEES

| SMILES | IC50 (human BTK) [nM] | IC50 (human EGFR) [µM] | IC50 [1] [nM] | bioavailability (Rat Oral Bioavailability) [%] | % inhibition paw thickness AUC vs Vehicle control ([2]; 0.5 mg/kg/d oral) [%] | % paw thickness AUC (mm) ± SE ([2]; 0.5 mg/kg/d oral) [mm] | % inhibition paw thickness AUC vs Vehicle control ([2]; 1 mg/kg/d oral) [%] | % paw thickness AUC (mm) ± SE ([2]; 1 mg/kg/d oral) [mm] | % inhibition paw thickness AUC vs Vehicle control ([2]; 3 mg/kg/d oral) [%] | % paw thickness AUC (mm) ± SE ([2]; 3 mg/kg/d oral) [mm] | arthritis severity in CIA rats [2] | tolerability when administered in vivo (normal rats) | toxicity in vivo (normal rats) | % inhibition paw thickness AUC vs Vehicle control ([2]; 10 mg/kg/d oral) [%] | % paw thickness AUC (mm) ± SE ([2]; 10 mg/kg/d oral) [mm] | % inhibition paw thickness AUC vs Vehicle control ([2]; 0.3 mg/kg/d oral) [%] | % paw thickness AUC (mm) ± SE ([2]; 0.3 mg/kg/d oral) [mm] |
| --- | --- | --- | --- | --- | --- | --- | --- | --- | --- | --- | --- | --- | --- | --- | --- | --- | --- |
| C=CC(=O)N1CCC(Nc2cncc(-c3cnc(Oc4cccc(Cl)c4)nc3)c2)CC1 [Example 1, 1-[4-[[5-[2-(3-chlorophenoxy)pyrimidin-5-yl]-3-pyridyl]amino]-1-piperidyl]prop-2-en-1-one] | 25.3 ± 5.42 | 0.47 ± 0.0936 | 393 ± 128 | 74 | 23 | 73.9 ± 2.5 | 47 | 69.6 ± 2.0 | 81 | 63.4 ± 1.3 | dose-related reduction | generally well tolerated | advantageous lack of toxicity |  |  |  |  |
| C=CC(=O)N1CC[C@H](Nc2cncc(-c3cnc(Oc4cccc(OC(F)F)c4)nc3)c2)C1 [Example 5, 1-[(3S)-3-[[5-[2-[3-(difluoromethoxy)phenoxy]pyrimidin-5-yl]-3-pyridyl]amino]pyrrolidin-1-yl]prop-2-en-1-one] |  |  | 485 ± 234 | 36.6 |  |  | 34 | 71.68 ± 2.24 | 58 | 67.18 ± 1.07 |  |  |  |  |  |  |  |
| C=CC(=O)N1CC(Nc2cncc(-c3cnc(Oc4cccc(OC(F)(F)F)c4)nc3)n2)C1 [Example 27, 1-[3-[[6-[2-[3-(trifluoromethoxy)phenoxy]pyrimidin-5-yl]pyrazin-2-yl]amino]azetidin-1-yl]prop-2-en-1-one] | 33.7 ± 10.8 | 10.4 ± 11.5 | 664 ± 314 | 38.4 |  |  | 24 | 73.30 ± 0.95 | 45 | 69.58 ± 1.26 | dose-related reduction |  |  |  |  |  |  |

Continued, in another order:

| IC50 (human BTK) [nM] | IC50 (human EGFR) [µM] | IC50 [1] [nM] | bioavailability (Rat Oral Bioavailability) [%] | SMILES | % inhibition paw thickness AUC vs Vehicle control ([2]; 0.5 mg/kg/d oral) [%] | % paw thickness AUC (mm) ± SE ([2]; 0.5 mg/kg/d oral) [mm] | % inhibition paw thickness AUC vs Vehicle control ([2]; 1 mg/kg/d oral) [%] | % paw thickness AUC (mm) ± SE ([2]; 1 mg/kg/d oral) [mm] | % inhibition paw thickness AUC vs Vehicle control ([2]; 3 mg/kg/d oral) [%] | % paw thickness AUC (mm) ± SE ([2]; 3 mg/kg/d oral) [mm] | arthritis severity in CIA rats [2] | tolerability when administered in vivo (normal rats) | toxicity in vivo (normal rats) | % inhibition paw thickness AUC vs Vehicle control ([2]; 10 mg/kg/d oral) [%] | % paw thickness AUC (mm) ± SE ([2]; 10 mg/kg/d oral) [mm] | % inhibition paw thickness AUC vs Vehicle control ([2]; 0.3 mg/kg/d oral) [%] | % paw thickness AUC (mm) ± SE ([2]; 0.3 mg/kg/d oral) [mm] |
| --- | --- | --- | --- | --- | --- | --- | --- | --- | --- | --- | --- | --- | --- | --- | --- | --- | --- |
| 8.53 ± 3.24 |  | 177 ± 41.6 | 41 | C=CC(=O)N1CC(Nc2cncc(-c3cnc(Oc4cccc(OC(F)F)c4)nc3)n2)C1 [Example 24, 1-[3-[[6-[2-[3-(difluoromethoxy)phenoxy]pyrimidin-5-yl]pyrazin-2-yl]amino]azetidin-1-yl]prop-2-en-1-one] |  |  | 28 | 65.04 ± 2.31 | 49 | 61.43 ± 4.47 | dose-related reduction |  |  | 63 | 59.24 ± 1.49 |  |  |
| 9.49 ± 3.21 | 0.366 ± 0.087 | 419 ± 118 | 54.1 | C=CC(=O)N1CC(Nc2cncc(-c3cnc(Oc4cccc(Cl)c4)nc3)n2)C1 [Example 31, 1-[3-[[6-[2-(3-chlorophenoxy)pyrimidin-5-yl]pyrazin-2-yl]amino]azetidin-1-yl]prop-2-en-1-one] |  |  | 62 | 66.10 ± 1.83 | 81 | 63.70 ± 0.96 | dose-related reduction |  |  | 82 | 64.33 ± 1.00 |  |  |
| 9.44 ± 2.26 | 22.2 ± 19.5 | 261 ± 145 | 44.6 | C=CC(=O)N1CC[C@H](Nc2cncc(-c3cnc(Nc4cccc(OC(F)(F)F)c4)nc3)n2)C1 [Example 33, 1-[(3S)-3-[[6-[2-[3-(trifluoromethoxy)anilino]pyrimidin-5-yl]pyrazin-2-yl]amino]pyrrolidin-1-yl]prop-2-en-1-one] |  |  | 52 | 68.32 ± 2.30 | 59 | 67.00 ± 1.52 | dose-related reduction |  |  |  |  | 24 | 73.61 ± 2.09 |
